Some test systems named below: HCT-116 colon; SK-OV-3 ovarian; IGROV1 ovarian; SN12C renal; SF-268 CNS; HT29 colon; A549 NSCLC; OVCAR-5 ovarian; LOX IMVI melanoma; NCI-H226 lung.
Experiment in all cases: NCI-60 cell line screen, 48 h

SMILES strings stand for the structures.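 Briefly, cells in 96-well plates were exposed to five compound concentrations for 48 h, and endpoints were estimated by linear interpolation. GI50 = concentration required for 50% inhibition of growth. TGI denotes the concentration required for complete inhibition of growth.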

As to `CCCCCCCCn1ccc2cc(NC(=O)Cn3cc(CN4CCCCC4)nn3)ccc21`, the GI50 is 1.7 µM with HCT-116 colon; 1.89 µM with SK-OV-3 ovarian; 1.88 µM in the assay on IGROV1 ovarian; 1.8 µM in the assay with SN12C renal; 2.05 µM in the assay on SF-268 CNS; 2.02 µM in the assay with HT29 colon. Further, the GI50 was 1.99 µM in the assay on A549 NSCLC, 1.78 µM with OVCAR-5 ovarian, 1.63 µM with LOX IMVI melanoma and 8.65 µM with NCI-H226 lung. Besides, the TGI with HCT-116 colon was determined as 3.19 µM; in the assay on SK-OV-3 ovarian, 3.97 µM; in the assay on IGROV1 ovarian, 3.97 µM; in the assay on SN12C renal, 3.75 µM; in the assay with SF-268 CNS, 4.51 µM; in the assay with HT29 colon, 4.28 µM. In addition, the TGI was 4.57 µM in the assay with A549 NSCLC, 3.71 µM in the assay with OVCAR-5 ovarian, 3.17 µM with LOX IMVI melanoma and 27.7 µM with NCI-H226 lung.

With `CN1CCN(C)C12C=CC=CC21CC1`, the TGI in the assay on HCT-116 colon, in the assay with SK-OV-3 ovarian, with IGROV1 ovarian, in the assay on SN12C renal, in the assay on SF-268 CNS and in the assay with HT29 colon was above 100 µM in each case. In addition, the TGI in the assay with A549 NSCLC, in the assay on OVCAR-5 ovarian, in the assay on LOX IMVI melanoma and in the assay with NCI-H226 lung was above 100 µM throughout.

With `COc1ccc(C2=NN(C(=O)c3cc(OC)c(OC)c(OC)c3)C(c3ccc(N(C)C)cc3)C2)cc1` (configuration not stated), the GI50 in the assay on HCT-116 colon is 0.439 µM; in the assay on SK-OV-3 ovarian, 0.463 µM; in the assay with IGROV1 ovarian, 0.739 µM; in the assay on SN12C renal, 2.6 µM; in the assay with SF-268 CNS, 0.736 µM; in the assay on HT29 colon, 0.395 µM. Further, the GI50 in the assay with A549 NSCLC was 1.12 µM; with OVCAR-5 ovarian it was 0.732 µM; in the assay on LOX IMVI melanoma, 0.549 µM; in the assay on NCI-H226 lung, 1.28 µM. Besides, the TGI in the assay with SK-OV-3 ovarian was 58.2 µM; in the assay with IGROV1 ovarian, above 100 µM; in the assay with SN12C renal it was above 100 µM; in the assay on SF-268 CNS, above 100 µM; in the assay with A549 NSCLC it was above 100 µM; with OVCAR-5 ovarian, above 100 µM. The TGI in the assay with LOX IMVI melanoma and in the assay with NCI-H226 lung was above 100 µM throughout.

As for `CC(=O)OC12COC1CC(O)C1(C)C(=O)C(O)C3=C(C)C(O)CC(O)(C(OC(=O)c4ccccc4)C21)C3(C)C` (configuration not stated), the TGI was above 73.6 µM in the assay with HCT-116 colon; above 100 µM in the assay with SK-OV-3 ovarian; above 100 µM in the assay on IGROV1 ovarian; above 100 µM in the assay on SN12C renal; above 100 µM in the assay on SF-268 CNS; above 44.8 µM with HT29 colon. Further, the TGI in the assay with A549 NSCLC is above 100 µM; with OVCAR-5 ovarian, above 42.2 µM; in the assay on LOX IMVI melanoma, above 100 µM; in the assay with NCI-H226 lung, above 100 µM.

Regarding `Nc1cc(=O)n(-c2ccccc2)c(=S)n1-c1ccccc1`, the TGI in the assay on HCT-116 colon, in the assay on SK-OV-3 ovarian, in the assay on IGROV1 ovarian, in the assay with SN12C renal, in the assay on SF-268 CNS and with HT29 colon was above 100 µM each time. Also, the TGI with A549 NSCLC, in the assay with OVCAR-5 ovarian, in the assay with LOX IMVI melanoma and with NCI-H226 lung was above 100 µM each time.

As for `N#C[Se]CCCNS(=O)(=O)C1CC2C=CC1C2` (configuration not stated), the GI50 in the assay on HCT-116 colon was 0.276 µM; in the assay on SK-OV-3 ovarian it was 2.77 µM; with IGROV1 ovarian, 0.383 µM; with SN12C renal, 0.494 µM; in the assay with SF-268 CNS it was 0.301 µM; in the assay with HT29 colon it was 0.386 µM. Further, the GI50 in the assay on A549 NSCLC is 0.601 µM; in the assay on OVCAR-5 ovarian, 0.828 µM; in the assay with LOX IMVI melanoma, 0.186 µM; in the assay with NCI-H226 lung, 0.267 µM. For the same compound, the TGI was determined as 0.827 µM with HCT-116 colon; 5.65 µM in the assay on SK-OV-3 ovarian; 1.65 µM in the assay on IGROV1 ovarian; 1.44 µM with SN12C renal; 0.916 µM with SF-268 CNS; 5.31 µM with HT29 colon. The TGI turned out to be 2.63 µM in the assay on A549 NSCLC, 5.13 µM with OVCAR-5 ovarian, 0.376 µM in the assay on LOX IMVI melanoma and 0.674 µM in the assay on NCI-H226 lung.

Regarding `O=C(O)c1ccc(C(=O)O)c(C(=O)Nc2ccc3c(c2)C(=O)c2ccccc2-3)c1`, the TGI in the assay on HCT-116 colon, in the assay with SK-OV-3 ovarian, in the assay on IGROV1 ovarian, in the assay with SN12C renal, in the assay on SF-268 CNS and with HT29 colon was above 100 µM each time. Further, the TGI in the assay with A549 NSCLC, with OVCAR-5 ovarian, in the assay on LOX IMVI melanoma and with NCI-H226 lung was above 100 µM throughout.

Consider `CC(=O)NC1C(OCc2ccccc2)OC(COC(=O)CCCCCCCCCCNc2ccc([N+](=O)[O-])c3[nH]c4ccccc4c(=O)c23)C(O)C1OC(C)C(=O)NC(C)C(=O)NC(CCC(N)=O)C(=O)OCc1ccccc1` (configuration not stated), for which the TGI in the assay with HCT-116 colon, in the assay with SK-OV-3 ovarian, in the assay on IGROV1 ovarian, in the assay on SN12C renal, in the assay on SF-268 CNS and with HT29 colon was above 100 µM each time. In addition, the TGI with A549 NSCLC, with OVCAR-5 ovarian, with LOX IMVI melanoma and in the assay on NCI-H226 lung was above 100 µM each time.

On to `O=C(c1ccco1)c1c(C(F)(F)F)n([O-])c2ccc(Cl)cc2[n+]1=O`, for which the GI50 is 0.0595 µM in the assay on HCT-116 colon; 2.09 µM in the assay on SK-OV-3 ovarian; 0.404 µM in the assay on IGROV1 ovarian; 1.35 µM with SN12C renal; 1.61 µM in the assay with SF-268 CNS; 0.359 µM in the assay with HT29 colon. For the same compound, the GI50 with A549 NSCLC was 0.615 µM; with OVCAR-5 ovarian, 1.47 µM; with LOX IMVI melanoma, 0.0951 µM; in the assay with NCI-H226 lung, 1.43 µM. Besides, the TGI is 2.84 µM with HCT-116 colon; 5.63 µM in the assay with SK-OV-3 ovarian; 3.13 µM in the assay on SN12C renal; 3.18 µM in the assay with SF-268 CNS; above 100 µM in the assay on HT29 colon; 2.44 µM with A549 NSCLC. The TGI in the assay on OVCAR-5 ovarian amounted to 2.86 µM; with LOX IMVI melanoma, 0.287 µM; with NCI-H226 lung, 3.24 µM.

`Clc1ccc(-c2c(C3=NCCCN3)nnn2-c2ccccc2)cc1`: the TGI in the assay on HCT-116 colon, in the assay with SK-OV-3 ovarian, in the assay with IGROV1 ovarian, in the assay on SN12C renal, in the assay with SF-268 CNS and in the assay with HT29 colon was above 100 µM throughout. Further, the TGI in the assay on A549 NSCLC was above 100 µM; in the assay with OVCAR-5 ovarian, above 100 µM; in the assay with LOX IMVI melanoma it was 55.7 µM; in the assay with NCI-H226 lung, above 100 µM.

Values taken from PubChem BioAssay (NCI).
